Reference: patent US5679708A, “Epoxysuccinic acid derivatives, their production and use” (Takeda Chemical Industries, Ltd., priority 1994, dated 1997)
Where a name gives a salt, the structure may show the parent alone.

How the values were obtained:
[1] = system: bone resorption as enhanced by PTH (parathyroid hormone); experiment: Determination of bone resorption suppressive activity (PTH-enhanced, isolated mouse femur culture); type: cell-based, female BALB/c mice; conditions: 168 h, test compound 10 μg/ml, PTH 1 μM, 7 days culture, total calcium content, 100x(Cp-Cs)/(Cp-Cc)
Description: Further, the compound (I) of this invention or salts thereof have an excellent activity of suppressing bone resorption. Their suppressive action against bone resorption as enhanced by PTH (parathyroid hormone) was determined by the method described below. The results are shown in [Table 3].
Determination of bone resorption suppressive activity
Femurs were aseptically isolated from female BALB/c mice at 8-10 weeks of age. After the bone marrow cavity was washed with a Ham's F-12 medium containing 10% (w/w) thermally inactivated fetal calf serum, 100 unit/ml penicillin G and 100 unit/ml streptomycin (hereinafter referred to as culture broth), each femur was added to 1 ml of the culture broth and precultured for 3 hours at 37° C. in the presence of 5% carbon dioxide gas and 95% air. Each bone was transferred to 1 ml of the culture broth supplemented with PTH (produced by Peptide Institute, Inc., final concentration of 1 μM) and the test compound (final concentration 10 μg/ml (and cultured for 7 more days, after which the total calcium content in the culture broth was determined using Calcium E-Test Wako (manufactured by Wako Pure Chemical Industries, Ltd.). The bone resorption suppressive activity of the test compound was calculated using the following equation:
Bone resorption suppressive activity(%)=100x(Cp-Cs)/(Cp-Cc)
Cc: Total calcium content in the culture broth containing neither PTH nor test compound
Cp: Total calcium content in the culture broth containing PTH
Cs: Total calcium content in the culture broth containing both PTH and test compound

[2] = biological target: T1, human recombinant cathepsin L (Homo sapiens, UniProt P07711); experiment: Determination of cathepsin L inhibitory activity; type: biochemical; conditions: human recombinant cathepsin L 1 ng; 20 μM Z-Phe-Arg-7MCA; pH 5.5; 37° C., 20 minutes; read-out: Inhibitory activity potency IC50 (Cathepsin L) (converted)
T1 construct: they were identified as a precursor of human cathepsin L and a product processed therefrom; made in house; host or cells: mouse myeloma Sp2/0 cells stably transformed with pTBN-HCLneo (Sp-HCL26); secreted, purified from serum-free culture supernatant
T1 sequence (P07711 114-333): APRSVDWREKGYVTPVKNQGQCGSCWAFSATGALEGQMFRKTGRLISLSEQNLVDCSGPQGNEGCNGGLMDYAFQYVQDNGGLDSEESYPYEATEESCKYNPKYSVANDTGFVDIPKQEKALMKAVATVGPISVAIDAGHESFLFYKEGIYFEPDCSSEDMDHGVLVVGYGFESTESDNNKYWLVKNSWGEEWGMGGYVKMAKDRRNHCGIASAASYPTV
Description: (a) Determination of cathepsin L inhibitory activity
To 75 μl of a reaction mixture containing 1 ng of human recombinant cathepsin L (those produced in Reference Examples 1 through 7 below were employed), 2 μM of dithiothreitol (hereinafter abbreviated as DTT), 1 mM of ethylenediaminetetraacetate disodium salt, 0.1M of a sodium acetate buffer solution (pH 5.5) and various concentrations of the sample, 25 μl of 20 μM benzyloxycarbonyl-L-phenylalanyl-L-arginine-4-methylcoumaryl-7-amide (hereinafter simply referred to as Z-Phe-Arg-7MCA, manufactured by Peptide Institute, Inc.) was added to initiate the reaction, and the reaction mixture was incubated at 37° C. for 20 minutes, followed by addition of 100 μl of a solution containing 100 mM of sodium monochloroacetate to suspend the reaction. The amount of liberated 4-methyl-7-aminocoumarin was determined at an excitation wavelength of 365 nm and a fluorescence wavelength of 450 nm, using a fluorophotometer (FCA: manufactured by Baxter Labs). The sample concentration required to cause 50% inhibition was expressed as the IC50 value, with the fluorescence value obtained from the same reaction in the absence of the sample taken as 100%.

Toxicity study = type: in vivo; conditions: rats, orally, 300 mg/kg
Description: Compound 1 caused no death in rats when it was orally administered at 300 mg/kg.

cathepsin B = biological target: T2, cathepsin B (Homo sapiens, UniProt P07858); experiment: Determination of cathepsin B inhibitory activity; type: biochemical; conditions: cathepsin B 30 ng (Sigma); 20 μM Z-Phe-Arg-7MCA; pH 5.5; 37° C., 20 minutes; read-out: Inhibitory activity potency IC50 (TABLE 2, head printed Cathepsin L) (converted)
T2 construct: purchased Sigma Chemical Co
Description: (b) Determination of cathepsin B inhibitory activity
To 75 μl of a reaction mixture containing 30 ng of cathepsin B (produced by Sigma Chemical Co.), 2 μM DTT, 1 mM ethylenediaminetetraacetate disodium salt, 0.1M sodium acetate buffer (pH 5.5) and various concentrations of the sample, 25 μl of 20 μM Z-Phe-Arg-7MCA was added to initiate the reaction, and the reaction mixture was incubated at 37° C. for 20 minutes, followed by addition of 100 μl of a solution containing 100 mM sodium monochloroacetate to suspend the reaction. The amount of liberated 4-methyl-7-aminocoumarin was determined at an excitation wavelength of 365 nm and a fluorescence wavelength of 450 nm, using a fluorophotometer. The sample concentration required to cause 50% inhibition was expressed as the IC50 value, with the fluorescence value obtained from the same reaction in the absence of the sample taken as 100%.

IC50 [2] [nM]	IC50 (cathepsin B) [nM]	Structure (SMILES)	inhibition at 10 µg/mL [1] [%]	death after oral administration (Toxicity study)
–	–	O=C(NCCCO)[C@H](Cc1ccccc1)NC(=O)[C@H]1O[C@@H]1C(=O)O [Compound 4, N-[N-[(2S,3S)-3-trans-carboxyoxirane-2-carbonyl]-L-phenylalanyl]-3-amino-1-propanol monosodium salt]	176	–
8.56	–	COCCCNC(=O)[C@H](Cc1ccccc1)NC(=O)[C@H]1O[C@@H]1C(=O)O [Compound 2, N-[N-[(2S,3S)-3-trans-carboxyoxirane-2-carbonyl]-L-phenylalanyl]-1-amino-3-methoxypropane monosodium salt]	–	–
–	–	CCOC(=O)[C@H]1O[C@@H]1C(=O)N[C@@H](Cc1ccccc1)C(=O)NCCCOC [Compound 1, N-[N-[(2S,3S)-3-trans-ethoxycarbonyloxysirane-2-carbonyl]-L-phenylalanyl]-1-amino-3-methoxypropane]	–	no death
8.19	5.46	CSCCCNC(=O)[C@H](Cc1ccccc1)NC(=O)[C@H]1O[C@@H]1C(=O)O [Compound 8, N-[N-[(2S,3S)-3-trans-carboxyoxirane-2-carbonyl]-L-phenylalanyl]-1-amino-3-methylthiopropane monosodium salt]	142	–

Structure (SMILES)	IC50 [2] [nM]	IC50 (cathepsin B) [nM]	inhibition at 10 µg/mL [1] [%]	death after oral administration (Toxicity study)
CC(=O)OCCCNC(=O)[C@H](Cc1ccccc1)NC(=O)[C@H]1O[C@@H]1C(=O)O [Compound 6, N-[N-[(2S,3S)-3-trans-carboxyoxirane-2-carbonyl]-L-phenylalanyl]-3-amino-acetoxypropane monosodium salt]	13.2	–	144	–
